Measurements as given in paper PMC4979060, “Structural basis of metallo-β-lactamase, serine-β-lactamase and penicillin-binding protein inhibition by cyclic boronates” (Nature Communications, 2016).

Assays:
PBP 3 = target: T1, PBP 3 (Pseudomonas aeruginosa, UniProt G3XD46); experiment: PBP inhibition assay (nitrocefin substrate), PBP 3; format: biochemical; details: NI = no inhibition at 100 μM, read-out: IC50 (μM)/pIC50 (converted)
T1 construct: made in house; host or cells: E. coli
Procedure: (§1) Kinetic and inhibition analyses, and ^19F NMR studies[10] against bacterial β-lactamases were performed as described. The FC-5 cephalosporin[9] was used as substrate for BcII, VIM-2, IMP-1, NDM-1, SPM-1, TEM-1 and OXA-10, meropenem[28] for CphA and nitrocefin[34] for PBP 3 and PBP 5.
(§2) In brief IC50 values were determined by preincubation of the appropriate amount of enzyme with the cyclic boronates in the assay buffers for 10 min at room temperature prior to the initiation of the assay by the addition of the appropriate substrate. The enzyme concentrations used are the following: 1 nM BcII, 100 nM VIM-2, 10 nM IMP-1, 10 nM NDM-1, 1 nM SPM-1, 1 nM TEM-1, 1 nM OXA-10, 2.5 nM CphA, 4 μM PBP 3 and 5 μM PBP 5; note that the final concentrations are stated. The assay buffers used are the following: 50 mM HEPES, pH 7.2 supplemented with 1 μg BSA, 1 μg ZnSO4 and 0.01% Triton for BcII, VIM-2, IMP-1, NDM-1 and SPM-1, 15 mM MES, pH 6.5 for CphA, 50 mM HEPES, pH 7.2 supplemented with 200 mM NaCl and 0.01% Triton 100 for TEM-1, 100 mM sodium phosphate, pH 7.2 supplemented with 50 mM NaHCO3 and 0.01% Triton 100 for OXA-10 and 50 mM HEPES, pH 7.2 supplemented with 200 mM NaCl and 0.01% Triton 100 for PBP 3 and PBP 5. The amount of substrates used is the following: 5 μM for BcII, VIM-2, IMP-1, NDM-1 and SPM-1, 10 μM for TEM-1 and OXA-10, 125 μM for CphA and 25 μM for PBP 3 and PBP 5; note that the final concentrations are stated.
(§3) The experiments were performed using a PHERAstar FS microplate reader (BMG Labtech) at room temperature (24–25 °C). All enzymes and inhibitors were prepared in the specific assay buffer. The kinetic values in this study are the means from at least three independent measurements; at least nine different concentrations of the inhibitor were used to determine the kinetic parameters (IC50). The IC50 values were determined using the software package Graph Prism 5.

SPM-1 = SPM-1 (Pseudomonas aeruginosa, UniProt Q8G9Q0); experiment: Fluorogenic β-lactamase inhibition assay (FC-5 substrate), SPM-1; format: biochemical
Procedure: as §1, §2, §3

NDM-1 = target: T2, NDM-1 (Klebsiella pneumoniae, UniProt C7C422); experiment: Fluorogenic β-lactamase inhibition assay (FC-5 substrate), NDM-1; format: biochemical
T2 construct: made in house; host or cells: E. coli
Procedure: as §1, §2, §3

[1] = test system: K. pneumoniae Ecl8 pSU18:NDM-1; experiment: MIC by broth microdilution and checkerboard; format: cell-based; details: Klebsiella pneumoniae, read-out: 2 MIC, 2 alone; Ecl8 pSU18:NDM-1 (blaSHV-1; blaNDM-1)
Source text: Bacterial strains: E. coli ATCC 25922 (ref. [35]) and K. pneumoniae NCTC 5055 (ref. [36]) were used as reference strains. K. pneumoniae Ecl8 (ref. [16]) and its ramR knock-out[37] were used as previously described. K. pneumoniae strain IR8 (ref. [40]), and E. coli strains IR10 and IR60 (ref. [17]) were generous gifts of Prof. T.R. Walsh. Plasmid pSU18:NDM-1 contains the complete blaNDM-1 open reading frame, together with its promoter, cloned into plasmid pSU18 (ref. [41]). The recombinant plasmid was made by PCR amplifying the blaNDM-1 gene and surrounding sequences from E. coli IR10 with primers NDM1F 5′- […] -3′ and NDM1R 5′- GGCGATGACAGCATCATC -3′, TA cloning the amplicon into pCR2.1 TOPO (Invitrogen) and subcloning into pSU18 using BamHI and XbaI.
MIC values were determined by broth microdilution, in triplicate, in cation-adjusted Mueller Hinton broth (Sigma) according to the Clinical Laboratory Standards Institute (CLSI) guidelines. Experiments were carried out in microtitre plates (Corning) containing the medium plus meropenem (Sequoia Research Products, Pangbourne, UK) and/or inhibitor 2 as appropriate. Chloramphenicol (20 μg ml^−1) was included in assays of strains (K. pneumoniae Ecl8 and derivative) that carried pSU18 plasmids or derivatives (pSU18:NDM-1) to ensure maintenance of plasmids throughout. Inhibitor 2 was dissolved in DMSO to 100 mg ml^−1 and diluted in broth. The final concentration of DMSO in the assays was kept constant at 0.01% (experiments using 10 μg ml^−1 inhibitor) or 0.03% (experiments using 25 μg ml^−1 inhibitor). Plates were incubated overnight at 37 °C for 18–24 h and absorbance at 600 nm read using a Polarstar Omega (BMG LabTech) plate reader.

BcII = target: T3, BcII (Bacillus cereus, UniProt P04190); experiment: Fluorogenic β-lactamase inhibition assay (FC-5 substrate), BcII; format: biochemical
T3 construct: made in house; host or cells: E. coli
Procedure: as §1, §2, §3

CphA = target: T4, CphA (Aeromonas hydrophila, UniProt P26918); experiment: B2 MBL inhibition assay (meropenem substrate), CphA; format: biochemical, Aeromonas hydrophilia
T4 construct: made in house; host or cells: E. coli
Procedure: as §1, §2, §3

M67C NDM-1 = M67C NDM-1 (Klebsiella pneumoniae, UniProt C7C422, M67C); experiment: 19F-protein NMR binding study; details: M67C NDM-1 labelled with 1,1,1-trifluoro-3-bromo acetone
Procedure: as §1
Supplementary Fig. 1. 19F NMR analyses of the NDM-1*-di-Zn(II)-2 complex. Titration using 2 gave rise to a new signal corresponding to a 2-NDM-1* complex, even at low concentrations of 2 indicating tight binding; at a 1:1, enzyme:inhibitor ratio (NDM-1*:2) no signals corresponding to uncomplexed NDM-1* species were observed. NDM-1* = NDM-1 M67C variant modified by reaction with BrCH COCF 1.
Supplementary Fig. 2. Cytotoxicity of 1,2 and Staurosporine (a control) using HEK293 cells.
(also on this page, place not known: enzyme: inhibitor NDM -1 BrCH2COCF3 -2 -1 0 1 0.5 1.0 1.5 - Log concentration (µM) Abs 490 HEK293 - 2 HEK293 - 1 Staurosporine HEK293) […]

PBP 5 (dacA) = target: T5, PBP 5 (dacA) (Escherichia coli, UniProt P0AEB2); experiment: PBP inhibition assay (nitrocefin substrate), PBP 5; format: biochemical
T5 construct: made in house; host or cells: E. coli
Procedure: as §1
In brief IC50 values were determined by preincubation of the appropriate amount of enzyme with the cyclic boronates in the assay buffers for 10 min at room temperature prior to the initiation of the assay by the addition of the appropriate substrate. The enzyme concentrations used are the following: 1 nM BcII, 100 nM VIM-2, 10 nM IMP-1, 10 nM NDM-1, 1 nM SPM-1, 1 nM TEM-1, 1 nM OXA-10, 2.5 nM CphA, 4 μM PBP 3 and 5 μM PBP 5; note that the final concentrations are stated. […]
The experiments were performed using a PHERAstar FS microplate reader (BMG Labtech) at room temperature (24–25 °C). […] The IC50 values were determined using the software package Graph Prism 5.

VIM-2 = target: T6, VIM-2 (Escherichia coli, UniProt Q5U7L7); experiment: Fluorogenic β-lactamase inhibition assay (FC-5 substrate), VIM-2; format: biochemical
T6 construct: made in house; host or cells: E. coli
Procedure: as §1, §2, §3

OXA-10 = target: T7, OXA-10 (Pseudomonas aeruginosa, UniProt P14489); experiment: Fluorogenic β-lactamase inhibition assay (FC-5 substrate), OXA-10; format: biochemical
T7 construct: made in house; host or cells: E. coli
Procedure: as §1, §2, §3

With `NCc1ccc(C(=O)N[C@H]2Cc3cccc(C(=O)O)c3O[B-]2(O)O)cc1` [compound 2] the IC50 (PBP 3) was over 100 µM, the pIC50 (SPM-1) was 4.7 and the IC50 (SPM-1; 10 min preincubation) was 16700 nM. The pIC50 (NDM-1) was 7.5, the IC50 (NDM-1; 10 min preincubation) was 29 nM and the MIC [1] was over 128 µg/mL. It also gave a pIC50 (BcII) of 6.5, an IC50 (BcII; 10 min preincubation) of 300 nM and a pIC50 (CphA) of over 4. For the same molecule, the IC50 (CphA; 10 min preincubation) was over 100000 nM, the “binding to the active site by 19F NMR titration” value (M67C NDM-1) was “tight binding” and the pIC50 (PBP 5 (dacA)) was 8.7. The IC50 (PBP 5 (dacA); 10 min preincubation) was 1.6 nM, the pIC50 (VIM-2) was 8.5 and the IC50 (VIM-2; 10 min preincubation) was 3 nM. For the same molecule, the pIC50 (OXA-10) was 5.2 and the IC50 (OXA-10; 10 min preincubation) was 5100 nM.
